Test results as given in US12691101B2, “Compound and method for preventing or treating of respiratory diseases comprising the same as an active ingredient” (YONSEI UNIVERSITY, UNIVERSITY - INDUSTRY FOUNDATION (UIF), priority 2019, dated 2026).
“Also recorded” adds a separate entry of the source. Where two headings read alike, the source gives them in different places.

Target: T1, human wild-type (WT)-pendrin (Homo sapiens, UniProt O43511)
T1 construct: expressed in transfected cells
T1 sequence (O43511 1-780): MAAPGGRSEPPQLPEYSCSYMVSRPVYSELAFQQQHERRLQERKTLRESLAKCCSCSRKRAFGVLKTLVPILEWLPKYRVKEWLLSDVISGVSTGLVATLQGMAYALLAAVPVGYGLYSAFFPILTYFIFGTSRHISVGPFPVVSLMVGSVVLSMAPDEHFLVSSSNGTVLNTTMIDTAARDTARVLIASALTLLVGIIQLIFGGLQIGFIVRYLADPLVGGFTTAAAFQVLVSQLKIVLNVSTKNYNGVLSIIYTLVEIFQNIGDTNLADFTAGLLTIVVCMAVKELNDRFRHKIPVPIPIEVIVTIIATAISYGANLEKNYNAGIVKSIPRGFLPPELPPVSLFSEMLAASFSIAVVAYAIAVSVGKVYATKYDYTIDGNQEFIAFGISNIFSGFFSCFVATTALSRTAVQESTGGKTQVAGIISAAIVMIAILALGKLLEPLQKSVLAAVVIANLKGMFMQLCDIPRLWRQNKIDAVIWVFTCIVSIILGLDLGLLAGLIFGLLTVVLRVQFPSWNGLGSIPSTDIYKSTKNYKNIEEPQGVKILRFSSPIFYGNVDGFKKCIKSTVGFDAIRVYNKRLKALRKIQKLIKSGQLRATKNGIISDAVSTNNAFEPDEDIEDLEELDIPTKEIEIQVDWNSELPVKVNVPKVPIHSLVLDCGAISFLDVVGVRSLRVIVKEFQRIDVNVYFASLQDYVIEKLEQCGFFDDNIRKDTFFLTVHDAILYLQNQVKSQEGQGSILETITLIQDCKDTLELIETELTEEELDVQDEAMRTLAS
Test: Pendrin-mediated Cl^−/I^− exchange activity, YFP fluorescence in CHO-K1 cells
Format: cell-based
Conditions: for inhibition at 30 µM: CHO-K1, 30 μM, read-out: Pendrin inhibitory activity at 30 μM (%); for inhibition of pendrin Cl^−/I^− exchange activity: CHO-K1 cells, pretreated 10 minutes

[1] = compounds showing pendrin inhibitory activity of 50% or more at 30 μM, read-out: IC50

IC50 (FIG. 4(a), read-out: 50% inhibition of Cl^−/I^− exchange activity) [nM]	Structure (SMILES)	inhibition at 30 µM [%]	inhibition of pendrin Cl^−/I^− exchange activity	IC50 [1] [nM]	IC50 (FIG. 4(b), read-out: inhibitory effect on the Cl—/I— exchange activity: IC50) [nM]
~3000	CC(C)(C)c1ccc(C2=NC(=Cc3cccs3)C(=O)O2)cc1 [F56, 2-(4-(tert-butyl)phenyl)-4-(thiophen-2-ylmethylene)oxazol-5(4H)-one]	84.7	significantly inhibited; also recorded: strongly inhibited	3300 ± 640	
	CC(C)(C)c1ccc(C2=NC(=Cc3ccc[nH]3)C(=O)O2)cc1 [F10, 4-((1H-pyrrol-2-yl)methylene)-2-(4-(tert-butyl)phenyl)oxazol-5 (4H)-one]	100	strongly inhibit	80 ± 20	~80
